Laboratory results reported in patent publication US20100099732A1, “MEDICAMENTS USEFUL AS POTASSIUM CHANNEL MODULATORS” (NeuroSearch A/S, priority 2007, published 2010).

Biological target: T1, BK channels (Homo sapiens, UniProt Q12791)
T1 construct: expressed in transfected cells; host or cells: Xenopus laevis oocytes
Experiment: BK channel opening activity, two-electrode voltage clamp in Xenopus laevis oocytes
Format: cell-based
Experimental: In this example the BK channel opening activity of a phenylcarbamoyl-methyl-indole derivative for use according to the invention, i.e. 5-Chloro-3-[(3-chloro-phenylcarbamoyl)-methyl]-1H-indole-2-carboxylic acid (herein designated Compound A), is determined using BK channels heterologously expressed in Xenopus laevis oocytes.
The electrical current through the BK channel is measured conventional two-electrode voltage clamp. BK current is activated by repeated step protocols. In brief, this protocol goes from a resting membrane potential of −40 mV lasting for 5 s to a depolarised step to +20 mV lasting for 1 s. The protocol was repeated continuously.
Having reached stable current level, Compound A (10 μM), was added. A marked increase in the current activated by depolarisation could be observed. The BK current activity returned to baseline after approximately 30-60 seconds of wash. In summary BK current was increased by 92±23% in the presence of 10 μM of compound A (n=3, SD value).

T1 sequence (Q12791 whole entry): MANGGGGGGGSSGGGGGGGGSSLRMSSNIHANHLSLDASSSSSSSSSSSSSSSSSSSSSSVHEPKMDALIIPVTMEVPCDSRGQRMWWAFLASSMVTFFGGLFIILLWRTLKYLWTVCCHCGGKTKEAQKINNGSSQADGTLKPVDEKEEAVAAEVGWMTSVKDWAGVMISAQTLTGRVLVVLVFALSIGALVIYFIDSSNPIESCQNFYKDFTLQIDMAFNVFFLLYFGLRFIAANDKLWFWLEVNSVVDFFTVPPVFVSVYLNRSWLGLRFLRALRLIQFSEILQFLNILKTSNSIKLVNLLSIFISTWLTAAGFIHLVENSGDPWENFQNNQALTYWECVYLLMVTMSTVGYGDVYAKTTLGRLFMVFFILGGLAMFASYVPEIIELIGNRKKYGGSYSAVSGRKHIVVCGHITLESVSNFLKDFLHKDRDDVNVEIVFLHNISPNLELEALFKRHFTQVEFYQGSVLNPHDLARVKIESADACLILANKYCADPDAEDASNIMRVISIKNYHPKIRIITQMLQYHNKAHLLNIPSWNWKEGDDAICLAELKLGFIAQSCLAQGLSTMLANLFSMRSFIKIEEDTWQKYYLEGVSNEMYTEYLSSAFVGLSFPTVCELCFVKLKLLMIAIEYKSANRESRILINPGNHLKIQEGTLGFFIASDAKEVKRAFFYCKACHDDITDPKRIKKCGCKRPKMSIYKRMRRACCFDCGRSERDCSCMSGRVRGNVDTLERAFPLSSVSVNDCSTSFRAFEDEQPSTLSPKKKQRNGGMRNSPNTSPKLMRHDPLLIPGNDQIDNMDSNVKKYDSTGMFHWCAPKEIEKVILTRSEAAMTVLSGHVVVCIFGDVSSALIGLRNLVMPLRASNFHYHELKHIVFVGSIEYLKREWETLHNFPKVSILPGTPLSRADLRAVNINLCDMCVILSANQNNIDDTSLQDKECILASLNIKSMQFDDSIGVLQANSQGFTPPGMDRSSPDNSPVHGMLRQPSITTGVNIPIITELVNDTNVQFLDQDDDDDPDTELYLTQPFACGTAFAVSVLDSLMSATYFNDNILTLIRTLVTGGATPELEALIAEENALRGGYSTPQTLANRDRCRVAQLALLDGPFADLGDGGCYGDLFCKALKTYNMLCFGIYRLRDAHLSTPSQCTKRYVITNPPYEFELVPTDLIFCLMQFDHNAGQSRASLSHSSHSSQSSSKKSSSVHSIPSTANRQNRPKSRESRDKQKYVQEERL

BK current increase (10 μM compound, BK channels heterologously expressed in Xenopus laevis oocytes, depolarising step to +20 mV, n=3, SD value): 92±23%
BK current activity return to baseline after wash (wash after 10 μM compound, Xenopus laevis oocytes): 30 to 60 s
SMILES: O=C(Cc1c(C(=O)O)[nH]c2ccc(Cl)cc12)Nc1cccc(Cl)c1 [Compound A, 5-Chloro-3-[(3-chloro-phenylcarbamoyl)-methyl]-1H-indole-2-carboxylic acid]
